Converted amounts (≈) assume the structure as drawn. Non-standard residues stand in square brackets, D forms with d. Residues, ends and D or L forms follow the SMILES beside them. ξ: configuration not given here. Ac6c = NC1(C(=O)O)CCCCC1; ξDap = NCC(N)C(=O)O
Key:
[1] = Antiproliferative activity against human IGROV1 cells after 72 hrs by Celltiter-Glo luminescent cell viability assay; type: functional, cell-based; details: IGROV-1, 72 h
[2] = Antiproliferative activity against human UACC62 cells after 72 hrs by Celltiter-Glo luminescent cell viability assay; type: functional, cell-based; details: UACC-62, 72 h
[3] = Antiproliferative activity against human DLD1 cells after 72 hrs by Celltiter-Glo luminescent cell viability assay; type: functional, cell-based; details: DLD-1, 72 h
[4] = Antibacterial activity against Yersinia pestis CO92 NR641 by two fold serial dilution method; type: functional
[5] = test system: Mycobacterium tuberculosis; assay: Antibacterial activity against Mycobacterium tuberculosis H37Ra ATCC 2517 by two fold serial dilution method; type: functional
[6] = test system: CFPAC-1; assay: Antiproliferative activity against human CFPAC-1 cells after 72 hrs by Celltiter-Glo luminescent cell viability assay; type: functional, cell-based; details: CFPAC-1, 72 h
[7] = test system: Burkholderia pseudomallei; assay: Antibacterial activity against Burkholderia pseudomallei AHS 1 NCTC 8016 by two fold serial dilution method; type: functional
[8] = test system: Pseudomonas aeruginosa; assay: Antibacterial activity against Pseudomonas aeruginosa Boston 41501 ATCC 27853 by two fold serial dilution method; type: functional
[9] = test system: Enterococcus faecalis; assay: Antibacterial activity against Enterococcus faecalis Portland ATCC 29212 by two fold serial dilution method; type: functional; details: ATCC 29212 Portland
[10] = test system: Acinetobacter baumannii; assay: Antibacterial activity against Acinetobacter baumannii B5W71 ATCC 15149 by two fold serial dilution method; type: functional
[11] = Antibacterial activity against Bacillus anthracis Ames NR-3838 by two fold serial dilution method; type: functional, Bacillus anthracis str. Ames
[12] = test system: MCF7; assay: Antiproliferative activity against human MCF7 cells after 72 hrs by Celltiter-Glo luminescent cell viability assay; type: functional, cell-based; details: MCF7, 72 h
[13] = Antiproliferative activity against human COLO205 cells after 72 hrs by Celltiter-Glo luminescent cell viability assay; type: functional, cell-based; details: COLO 205, 72 h
[14] = test system: RL; assay: Antiproliferative activity against human RL cells after 72 hrs by Celltiter-Glo luminescent cell viability assay; type: functional, cell-based
[15] = Antibacterial activity against Clostridium difficile VIP 10463 ATCC 43255 by two fold serial dilution method; type: functional, Clostridium difficile ATCC 43255; details: Clostridioides difficile
[16] = test system: A498; assay: Antiproliferative activity against human A498 cells after 72 hrs by Celltiter-Glo luminescent cell viability assay; type: functional, cell-based; details: A498, 72 h
[17] = Antiproliferative activity against human MIAPaCa2 cells after 72 hrs by Celltiter-Glo luminescent cell viability assay; type: functional, cell-based; details: MIA PaCa-2, 72 h
[18] = test system: Streptococcus pneumoniae; assay: Antibacterial activity against Streptococcus pneumoniae 262 ATCC 49619 by two fold serial dilution method; type: functional
[19] = test system: Staphylococcus aureus; assay: Antibacterial activity against methicillin-resistant Staphylococcus aureus USA 300 NRS 384 by two fold serial dilution method; type: functional
[20] = Antiproliferative activity against human PC3 cells after 72 hrs by Celltiter-Glo luminescent cell viability assay; type: functional, cell-based; details: PC-3, 72 h
[21] = test system: NCI-H69; assay: Antiproliferative activity against human NCI-H69 cells after 72 hrs by Celltiter-Glo luminescent cell viability assay; type: functional, cell-based; details: NCI-H69, 72 h
[22] = test system: Klebsiella aerogenes; assay: Antibacterial activity against carbapenem-resistant Enterobacter aerogenes NCDC819-56 ATCC 13048 by two fold serial dilution method; type: functional
[23] = test system: A549; assay: Antiproliferative activity against human A549 cells after 72 hrs by Celltiter-Glo luminescent cell viability assay; type: functional, cell-based; details: A549, 72 h
[24] = Antibacterial activity against Salmonella enterica LT2 Typhimurium ATCC 15277 by two fold serial dilution method; type: functional
[25] = Antibacterial activity against carbapenem-resistant Klebsiella pneumoniae K6 ATCC 700603 by two fold serial dilution method; type: functional, Klebsiella pneumoniae 700603
[26] = Antibacterial activity against Francisella tularensis SCHU S4 NR-643 by two fold serial dilution method; type: functional
[27] = test system: Neisseria gonorrhoeae; assay: Antibacterial activity against Neisseria gonorrhoeae F-18 ATCC 49226 by two fold serial dilution method; type: functional
[28] = test system: Staphylococcus aureus; assay: Antibacterial activity against Staphylococcus aureus Seattle 1945 ATCC 25923 by two fold serial dilution method; type: functional

| Structure (SMILES) | MIC [4] [µM] | MIC [5] [µM] | MIC [7] [µM] | MIC [8] [µM] | MIC [9] [µM] | MIC [10] [µM] | MIC [11] [µM] | MIC [15] [µM] | MIC [18] [µM] | MIC [19] [µM] | MIC [22] [µM] | MIC [24] [µM] | MIC [25] [µM] | MIC [26] [µM] | MIC [27] [µM] | MIC [28] [µM] | other results |
| --- | --- | --- | --- | --- | --- | --- | --- | --- | --- | --- | --- | --- | --- | --- | --- | --- | --- |
| CC(=O)NCC(=O)N[C@@H](Cc1ccccc1)C(=O)NC1(C(=O)NCC(=O)NC2(C(=O)N[C@@H](CCCCN)C(=O)N[C@@H](CCCCN)C(=O)NC3(C(=O)NCC(=O)NC4(C(=O)N[C@@H](Cc5ccccc5)C(=O)NC5(C(=O)NCC(=O)NC6(C(=O)NCC(=O)N[C@@H](CCCCN)C(=O)N[C@@H](CCCCN)C(=O)NC7(C(=O)N[C@@H](CCCCN)C(=O)N[C@@H](CCCCN)C(=O)N[C@@H](CCCCN)C(=O)N[C@@H](CCCCN)C(N)=O)CCCCC7)CCCCC6)CCCCC5)CCCCC4)CCCCC3)CCCCC2)CCCCC1 (Ac-GF[Ac6c]G[Ac6c]KK[Ac6c]G[Ac6c]F[Ac6c]G[Ac6c]GKK[Ac6c]KKKK-NH2) | > 39 | 4.92 (≈ 12.5 µg/mL) | > 39 | 2.46 (≈ 6.25 µg/mL) | 19.7 (≈ 50 µg/mL) | 2.46 (≈ 6.25 µg/mL) | 2.46 (≈ 6.25 µg/mL) | 2.46 (≈ 6.25 µg/mL) | 39.4 (≈ 100 µg/mL) | 39.4 (≈ 100 µg/mL) | > 39 | 2.46 (≈ 6.25 µg/mL) | 19.7 (≈ 50 µg/mL) | 19.7 (≈ 50 µg/mL) | 0.61 (≈ 1.55 µg/mL) | 19.7 (≈ 50 µg/mL) | IC50 [1]: > 7.5 µM; IC50 [2]: 2.6 µM; IC50 [3]: > 7.5 µM; IC50 [6]: > 7.5 µM; IC50 [12]: 6.2 µM; IC50 [13]: 5.4 µM; IC50 [14]: 2 µM; IC50 [16]: 3 µM; IC50 [17]: 7.3 µM; IC50 [20]: > 7.5 µM; IC50 [21]: 1.9 µM; IC50 [23]: 7.2 µM |
| CC(=O)NCC(=O)N[C@@H](Cc1ccccc1)C(=O)NC1(C(=O)NCC(=O)NC2(C(=O)NC(CN)C(=O)NC3(C(=O)NCC(=O)NC4(C(=O)N[C@@H](Cc5ccccc5)C(=O)NC5(C(=O)NCC(=O)NC6(C(=O)NCC(=O)NC(CN)C(=O)NC7(C(=O)NC(CN)C(=O)NC(CN)C(=O)NC(CN)C(=O)NC(CN)C(N)=O)CCCCC7)CCCCC6)CCCCC5)CCCCC4)CCCCC3)CCCCC2)CCCCC1 (stereo not given in full) (Ac-GF[Ac6c]G[Ac6c][ξDap][Ac6c]G[Ac6c]F[Ac6c]G[Ac6c]G[ξDap][Ac6c][ξDap][ξDap][ξDap][ξDap]-NH2) | > 49 | 24.6 (≈ 50 µg/mL) | > 49 | 3.08 (≈ 6.26 µg/mL) | 3.08 (≈ 6.26 µg/mL) | > 48 | 6.16 (≈ 12.5 µg/mL) | 3.08 (≈ 6.26 µg/mL) | 24.6 (≈ 50 µg/mL) | 6.16 (≈ 12.5 µg/mL) | 1.54 (≈ 3.13 µg/mL) | 24.6 (≈ 50 µg/mL) | 3.08 (≈ 6.26 µg/mL) | 49.2 (≈ 99.9 µg/mL) | 6.16 (≈ 12.5 µg/mL) | 6.16 (≈ 12.5 µg/mL) | – |
| C[C@H]1c2cccc(O)c2C(=O)C2=C(O)[C@]3(O)C(=O)C(C(N)=O)=C(O)[C@@H](N(C)C)[C@@H]3[C@@H](O)[C@@H]21 [DOXYCYCLINE] | 1.1 (≈ 0.489 µg/mL) | – | – | – | – | – | 0.87 (≈ 0.387 µg/mL) | – | – | – | – | – | – | 1.1 (≈ 0.489 µg/mL) | – | – | – |
| CN[C@@H]1[C@H](O[C@H]2[C@H](O[C@H]3[C@H](O)[C@@H](O)[C@H](N=C(N)N)[C@@H](O)[C@@H]3N=C(N)N)O[C@@H](C)[C@]2(O)C=O)O[C@@H](CO)[C@H](O)[C@H]1O [STREPTOMYCIN] | – | 3.4 (≈ 1.98 µg/mL) | – | – | – | – | – | – | – | – | – | – | – | – | – | – | – |
| CN(C)[C@@H]1C(O)=C(C(N)=O)C(=O)[C@@]2(O)C(O)=C3C(=O)c4c(O)cccc4[C@@](C)(O)[C@H]3C[C@@H]12 [TETRACYCLINE] | – | – | 4.5 (≈ 2 µg/mL) | – | – | – | – | – | – | – | – | – | – | – | 2.25 (≈ 1 µg/mL) | – | – |

Reference: ChEMBL document CHEMBL3822432, “Antibacterial and anticancer activity of a series of novel peptides incorporating cyclic tetra-substituted C(α) amino acids” (Bioorg Med Chem, 2016)
